We go through 26 compounds from ChEMBL document CHEMBL3244027, “Syntheses, analgetic activity, and physical dependence capacity of 5-phenyl-6,7-benzomorphan derivatives” (J Med Chem, 1979).

Assay [1] has as its system Mus musculus. The assay can be described thus: Analgetic activity against CF-1 mouse assessed as increase in reaction time at 320 mg/kg, po by heat stimulus induced tail flick response assay. Format: functional, organism-based. Also on record: dose 320 mg/kg.
Assay [2] has as its system Mus musculus. The assay can be described thus: Analgetic activity in sc dosed CF1S mouse assessed as writhing by phenylquinone writhing test. The format is functional. As to conditions: Mus musculus, CF1S, sc; read-out: ED50.
The subject of assay [3] is Mus musculus. The assay can be described thus: Analgetic activity in po dosed CF1S mouse assessed as writhing by phenylquinone writhing test. Format: functional. To be noted: Mus musculus, CF1S, po; read-out: ED50.
For assay [4], the system named is Mus musculus. The assay can be described thus: Analgetic activity against CF-1 mouse assessed as increase in reaction time at 320 mg/kg, sc by heat stimulus induced tail flick response assay. The format is functional, organism-based. Also on record: dose 320 mg/kg.

Active and inactive are the calls of the source. The rule behind the calls is not given here.

As for `CCCCCCCCCCN1CCC2(c3ccccc3)c3cc(O)ccc3CC1C2C.Cl` (configuration not stated), the result in the assay on Mus musculus [1] was inactive. Further, the results for the ED50 in the assay with Mus musculus [2] and in the assay on Mus musculus [3] were 70 mg/kg and more than 100 mg/kg, respectively.
For `O=[N+]([O-])c1ccc(CCN2CCC3(c4ccccc4)CC2Cc2ccc(O)cc23)cc1` (racemic), the result with Mus musculus [4] was inactive.
As for `Oc1ccc2c(c1)C1(c3ccccc3)CCN(CCCCc3ccccc3)C(C2)C1` (racemic), the outcome with Mus musculus [1] was inactive. The ED50 in the assay on Mus musculus [3] is more than 100 mg/kg.
Consider `CN1CCC2(c3ccccc3)CC1Cc1ccccc12` (stereo in doubt; 37), for which the result in the assay with Mus musculus [4] was inactive.
For the compound `Br.CCN1CCC2(c3ccccc3)CC1Cc1ccccc12` (racemic), the result in the assay on Mus musculus [4] was inactive. Moreover, in the assay on Mus musculus [2], the ED50 turned out to be 16 mg/kg.
`CC1C2Cc3ccc(O)cc3C1(c1ccccc1)CCN2CCN1CCOCC1` (configuration not stated): the result in the assay on Mus musculus [1] was inactive. Besides, the ED50 in the assay with Mus musculus [2] and in the assay with Mus musculus [3] was more than 100 mg/kg in each case.
For `OCCN1CCC2(c3ccccc3)CC1Cc1ccc(O)cc12` (racemic), in the assay on Mus musculus [4], the outcome was inactive. The median effective dose (ED50) in the assay with Mus musculus [2] was more than 100 mg/kg.
Regarding `CC1C2Cc3ccc(O)cc3C1(c1ccccc1)CCN2Cc1ccco1` (configuration not stated), in the assay on Mus musculus [4], the outcome was inactive.
`COc1ccc2c(c1)C1(c3ccccc3)CCN(CC=C(C)C)C(C2)C1C` (configuration not stated): the result with Mus musculus [4] was inactive. Further, in the assay with Mus musculus [2], the ED50 was more than 100 mg/kg.
Regarding `CCOC(=O)N1CCC2(c3ccccc3)CC1Cc1ccc(OC(C)=O)cc12` (racemic), in the assay with Mus musculus [1], the result was inactive. Besides, in the assay on Mus musculus [3], the ED50 was more than 100 mg/kg.
With `Oc1ccc2c(c1)C1(c3ccc(Cl)cc3)CCNC(C2)C1` (racemic), in the assay on Mus musculus [4], the result was inactive.
The same measure, in the same setting: as for `CN1CCC2(c3ccccc3)CC1Cc1cc(O)c(O)cc12` (racemic), the entry is “inactive”.
As to `CCCCCN1CCC2(c3ccccc3)CC1Cc1ccc(O)cc12.Cl` (racemic), the result in the assay with Mus musculus [1] was inactive. Besides, the ED50 in the assay with Mus musculus [2] was 23 mg/kg.
In the case of `CCOC(=O)C(C)N1CCC2(c3ccccc3)c3cc(O)ccc3CC1C2C` (configuration not stated), in the assay on Mus musculus [4], the outcome was inactive. The median effective dose (ED50) in the assay on Mus musculus [2] was more than 100 mg/kg.
In the case of `CC1C2Cc3ccc(O)cc3C1(c1ccccc1)CCN2CCc1ccc([N+](=O)[O-])cc1.Cl` (configuration not stated), the result in the assay with Mus musculus [4] and with Mus musculus [1] was inactive. Further, the ED50 in the assay on Mus musculus [3] was more than 100 mg/kg.
With `CCOC(=O)CCN1CCC2(c3ccccc3)CC1Cc1ccc(O)cc12` (racemic), the outcome in the assay on Mus musculus [4] was inactive. The results for the ED50 in the assay on Mus musculus [2] and in the assay with Mus musculus [3] were 78 mg/kg and more than 100 mg/kg, respectively.
Take `CC1C2Cc3ccc(O)cc3C1(c1ccccc1)CCN2CC12CC3CC(CC(C3)C1)C2.Cl` (configuration not stated): the result with Mus musculus [1] was inactive. Besides, the ED50 with Mus musculus [3] is more than 100 mg/kg.
In the case of `CC1C2Cc3ccc(O)cc3C1(c1ccccc1)CCN2` (stereo in doubt; 110), the result in the assay with Mus musculus [4] and with Mus musculus [1] was inactive.
In the case of `CCOC(=O)CN1CCC2(c3ccccc3)c3cc(O)ccc3CC1C2C` (configuration not stated), the outcome in the assay with Mus musculus [4] was inactive.
For the compound `COc1ccc2c(c1)C1(c3ccccc3)CCNC(C2)C1.Cl` (configuration not stated), the outcome in the assay on Mus musculus [4] was inactive. For the same compound, in the assay on Mus musculus [2], the ED50 is 100 mg/kg.
For the compound `CC(O)C(=O)O.CC1C2Cc3ccc(O)cc3C1(c1ccccc1)CCN2C/C=C/c1cccs1` (configuration not stated), the outcome in the assay on Mus musculus [1] was inactive. Further, the ED50 with Mus musculus [3] was more than 100 mg/kg.
Regarding `CC1C2Cc3ccc(OC(=O)C(c4ccccc4)c4ccccc4)cc3C1(c1ccccc1)CCN2C(=O)C(c1ccccc1)c1ccccc1.O` (configuration not stated), in the assay with Mus musculus [1], the result was inactive. The 50% effective dose (ED50) in the assay with Mus musculus [2] is more than 100 mg/kg.
Regarding `CCCN1CCC2(c3ccccc3)c3cc(O)ccc3CC1C2C` (stereo in doubt; 173), in the assay on Mus musculus [4], the result was inactive.
On the same count and under the same terms, as for `CC(=O)Oc1ccc2c(c1)C1(c3ccccc3)CCN(CC=C(C)C)C(C2)C1C` (configuration not stated), the entry is “inactive”.
On to `CN(C)CCCN1CCC2(c3ccccc3)CC1Cc1ccc(O)cc12` (racemic), for which, in the assay on Mus musculus [4], the result was inactive.
In the case of `C[C@@H]1C2Cc3ccc(O)cc3C1(c1ccccc1)CCN2CCC(C)(C)O` (some centres not stated), the result in the assay with Mus musculus [4] was inactive. Also, in the assay on Mus musculus [2], the ED50 was determined as 78 mg/kg.
